Source: patent US6432688B1, “Amino alcohol dehydrogenase converts keto alcohol to amino alcohol and amino alcohol to keto alcohol” (Daicel Chemical Industries, Ltd., priority 1999, dated 2002)

Experiments:
[1] = system: amino alcohol dehydrogenase derived from Streptomyces virginiae IFO 12827; test: Substrate specificity, relative activity to various substrates
Procedure: Based on this reaction, the amino alcohol dehydrogenase activity i n the crude enzyme solution was spectroscopically determined by measuring the change of absorbance at 490 nm. One unit of enzymewas defined as the amount of the enzyme producing 1 μmol formazan in 1 min under the above condition.

[2] = system: amino alcohol dehydrogenase obtained in Example 7; test: Enzyme reaction: conversion of substrates, product analysed by GC, HPLC or GC-MS; type: biochemical, Streptomyces virginiae IFO 12827; conditions: 0.5 unit enzyme, 25° C., 48 hours; reductive: 10 mM NADH, 0.2M NH4Cl, pH 8.0; oxidative: 10 mM NAD+, pH 9.0
Procedure: The amino alcohol dehydrogenase (0.5 unit) obtained in Example 7 was added to 2 ml of a mixture containing 5 mM hydroxyacetone, 10 mM NADH, 0.2M NH4Cl, 0.1 M Tris-HCl buffer (pH 8.0), and the resulting reaction mixture was incubated at 25° C. for 48 hours. The product was analyzed by gas chromatography with a FID detector (column, TENAX TA (3.2 mm×1 m); injection and detection temperature, […]; N2 flow rate, 50 ml/min; column temperature, gradient from 150 to 180° C. (5° C./min); retained at 180° C. for 10 min). […] The retention time of 2-amino-1-propanol was completely the same as that of the standard compound.
The same reaction system as used in 1) except for using oxalacetic acid as a substrate in place of hydroxyacetone was incubated at 25° C. for 48 hours. The produced amino acid was converted into an o-phthalaldehyde (OPA) derivative by OPA-derivatization method. The derivative was analyzed by high-performance liquid chromatography (column, CAPCELL PAC C18 AG120 (4.6 mm×25 cm, Shiseido); detection, 340 nm; column temperature, 45° C.; mobile phase flow rate, 1 ml/ min; concentration gradient elution, a) 10 mM sodium phosphate buffer (pH 6.8) to b) acetonitrile:10 mM sodium phosphate buffer (pH 6.8) =2:1).
The amino alcohol dehydrogenase (0.5 unit) was added to a mixture of 2 mM 1-phenethylamine, 10 mM NAD^+ and 0.1, M Tris-HCl buffer (pH 9.0), and the resulting reaction solution was incubated at 25° C. for 48 hours. The reaction solution was adjusted to pH 10.0 with NaOH and extracted with an equivalent volume of ethyl acetate.

[3] = biological target: T1, alanine dehydrogenase (derived from Bacillus stearothermophilius, Seikagaku Corporation) (Geobacillus stearothermophilus, UniProt P17557); test: Reactivity of commercially available alanine dehydrogenase (NADH at 340 nm); type: biochemical; conditions: 1 mM NAD+, 10 mM substrate, 0.1 M Tris-HCl pH 8.0, 0.02 unit enzyme, 25° C.
T1 construct: purchased Seikagaku Corporation
Procedure: (§1) Known NAD(H)-dependent amino acid dehydrogenases reportedly act on only keto acids and amino acids as substrates (Experiments of Biochemistry, Vol. 11, ed. by Japan Society of Biochemistry, Amino acid metabolism and biological amine (I) 193-218, J. Org. Chem. 55, 5567, 1990; Fermentation and Industry 40, 301-311, 1982). […] Reactivity of a commercially available alanine dehydrogenase to amino alcohols was examined. Reaction was performed at 25° C. for several min in a reaction solution containing 1 mM NAD^+, 10 mM of each substrate, 0.1 M Tris-HCl buffer (pH 8.0), and 0.02 unit of alanine dehydrogenase (derived from Bacillus stearothermophilius, Seikagaku Corporation). NADH produced was spectroscopically measured at 340 nm.

[4] = system: L-glutamate dehydrogenase derived from microorganism (Toyobo); test: Reactivity of L-glutamate dehydrogenase derived from microorganism; type: biochemical; conditions: same experiment as Comparison Example 1
Procedure: as §1
The same experiment as Comparison Example 1 was conducted using L-glutamate dehydrogenase derived from microorganism (Toyobo), and that derived from bovine liver (Lifetech Oriental).

[5] = system: amino alcohol dehydrogenase derived from Streptomyces virginiae IFO 12827; test: Km values in reductive amination and oxidative deamination; type: biochemical
[6] = system: amino alcohol dehydrogenase derived from Streptomyces virginiae IFO 12827; test: Coenzyme dependence; type: biochemical
[7] = Substrate (Amino alcohols), activity to serinol as 100%, TABLE 3
[8] = Substrate (Amino alcohols), activity to serinol as 100%, TABLE 3 printed a second time
[9] = Substrate (Amines), TABLE 5 printed a fourth time
[10] = Substrate (Amines), TABLE 5 printed a second time
[11] = Substrate (Amines), TABLE 5 printed a third time
[12] = oxidative deamination reaction (pH 9.0, Tris-HCl buffer)
[13] = reductive amination reaction (pH 7.0, phosphate buffer)

T1 sequence (P17557 whole entry): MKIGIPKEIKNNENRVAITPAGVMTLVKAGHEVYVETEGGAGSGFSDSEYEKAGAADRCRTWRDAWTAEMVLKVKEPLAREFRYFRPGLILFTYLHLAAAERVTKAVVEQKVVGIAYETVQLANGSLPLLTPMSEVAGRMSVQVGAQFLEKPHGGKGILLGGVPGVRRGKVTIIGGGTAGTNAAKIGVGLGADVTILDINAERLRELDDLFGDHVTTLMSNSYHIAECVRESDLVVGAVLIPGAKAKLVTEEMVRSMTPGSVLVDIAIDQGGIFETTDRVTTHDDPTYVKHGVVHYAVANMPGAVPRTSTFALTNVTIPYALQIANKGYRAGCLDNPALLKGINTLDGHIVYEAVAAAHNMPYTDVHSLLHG

Row | Compound | Relative activity (%) [1, 7] [%] | Relative activity (%) [1, 8] [%] | Relative activity (%) ([1]; Substrate (Amines), TABLE 5) | Relative activity (%) [1, 9] [%] | Relative activity (%) [1, 10] [%] | Relative activity (%) [1, 11] [%] | further results
1 | CCCC(N)CO (racemic) [DL-2-amino-1-pentanol] | 103 | 103 | – | – | – | – | –
2 | CCC(N)CO (single isomer, unassigned; (+)) [(+)-2-amino-1-butanol] | 109 | 109 | – | – | – | – | –
3 | CC(N)CCc1ccccc1 (centres unmarked) [1-methyl-3-phenylpropylamine] | – | – | 152 | 152 | 152 | 152 | –
4 | CC(N)c1ccccc1 (centres unmarked) [1-phenethylamine] | – | – | – | – | – | – | conversion by the enzyme [2]: the enzyme converts amine into ketone
5 | CC(C)(N)CO [2-amino-2-methyl-1-propanol] | 115 | 115 | – | – | – | – | –
6 | Nc1ncccc1O [2-amino-3-hydroxypyridine] | 136 | 136 | – | – | – | – | –
7 | NC1CCCCC1O (centres unmarked) [2-aminocyclohexanol] | 113 | 113 | – | – | – | – | –
8 | CCCC(C)N (centres unmarked) [2-aminopentane] | – | – | 252 | 252 | 252 | 252 | –
9 | CCC(N)CC [3-aminopentane] | – | – | 270 | 270 | 270 | 270 | –
10 | C[C@@H](N)c1ccccc1 [(R)-1-phenethylamine] | – | – | 127 | 127 | 127 | 127 | –
11 | CC[C@@H](C)N [(R)-2-aminobutane] | – | – | 127 | 127 | 127 | 127 | –
12 | CCCCC[C@@H](C)N [(R)-2-aminoheptane] | – | – | 91 | 91 | 91 | 91 | –
13 | CC(C)[C@H](N)CO [(S)-(+)-2-amino-3-methyl-1-butanol] | 43 | 43 | – | – | – | – | –
14 | CC(C)C[C@H](N)CO [(S)-(+)-leucinol] | 105 | 105 | – | – | – | – | –
15 | N[C@H](CO)Cc1ccccc1 [(S)-(−)-2-amino-3-phenyl-1-propanol] | 120 | 120 | – | – | – | – | –
16 | CSCC[C@H](N)CO [L-(−)-methioninol] | 85 | 85 | – | – | – | – | –

Row | Compound | Relative activity (%) [1, 7] [%] | Relative activity (%) [1, 8] [%] | Relative activity (%) ([1]; Substrate (Amines), TABLE 5) | Relative activity (%) [1, 9] [%] | Relative activity (%) [1, 10] [%] | Relative activity (%) [1, 11] [%] | further results
17 | C[C@H](N)C(=O)O [L-alanine] | – | – | – | – | – | – | enzyme acts on substrate [3]: acted on
18 | N[C@@H](CCC(=O)O)C(=O)O [L-glutamic acid] | – | – | – | – | – | – | enzyme acts on substrate [4]: acted on
19 | NC(=O)c1ccc[n+]([C@@H]2O[C@H](COP(=O)([O-])OP(=O)(O)OC[C@H]3O[C@@H](n4cnc5c(N)ncnc54)[C@H](O)[C@@H]3O)[C@@H](O)[C@H]2O)c1 [NAD^+] | – | – | – | – | – | – | Km [5, 12]: 840 µM
20 | Cl.N [NH4Cl] | – | – | – | – | – | – | Km [5, 13]: 25000 µM
21 | COS(=O)(=O)[O-].C[n+]1c2ccccc2nc2ccccc21 [PMS, phenazinementasulfate, reference compound] | – | – | – | – | – | – | use as coenzyme / electron acceptor [6]: does not use
22 | NCc1ccccc1 [benzylamine] | – | – | 134 | 134 | 134 | 134 | –
23 | CC(=O)CO [hydroxyacetone] | – | – | – | – | – | – | conversion by the enzyme [2]: production of 2-amino-1-propanol was detected
24 | CC[C@H](C)[C@H](N)CO [isoleucinol] | 113 | 113 | – | – | – | – | –
25 | CCCCN [n-butylamine] | – | – | 170 | 170 | 170 | 170 | –
26 | CCCCCCN [n-hexylamine] | – | – | 173 | 173 | 173 | 173 | –
27 | CCCCCCCCN [n-octylamine] | – | – | 114 | 114 | 114 | 114 | –
28 | O=C(O)CC(=O)C(=O)O [oxalacetic acid] | – | – | – | – | – | – | conversion by the enzyme [2]: peak of the product, aspartic acid was observed
29 | NC(CO)CO [serinol] | 100 | 100 | – | – | – | – | Km [5, 12]: 4000 µM
30 | NAD(H) | – | – | – | – | – | – | use as coenzyme / electron acceptor [6]: dependent
31 | NADH | – | – | – | – | – | – | Km [5, 13]: 22 µM
32 | NADP(H) | – | – | – | – | – | – | use as coenzyme / electron acceptor [6]: does not use
